Values after ≈ are worked out from the molar mass of the structure shown. Active and inactive are the calls of the source. No cut-off for these calls is given here.
Columns and labels:
[1] = Selectivity index, ratio of CC50 for african green monkey vero cells to MIC for Bacillus subtilis ATCC 11774; type: functional
Escherichia coli [2] = assay: Bactericidal activity against Escherichia coli ATCC 10536 by broth dilution method; type: functional
[3] = Selectivity index, ratio of CC50 for african green monkey vero cells to MIC for Escherichia coli ATCC 10536; type: functional
Staphylococcus aureus [4] = assay: Antibacterial activity against Staphylococcus aureus ATCC 25923 assessed as growth inhibition by broth dilution method; type: functional
Escherichia coli [5] = assay: Antibacterial activity against Escherichia coli ATCC 10536 assessed as growth inhibition at 1 mg/ml after 24 hrs by agar diffusion method; type: functional; settings: ATCC 10536, 24 h, read-out: DIZ
Pseudomonas aeruginosa [6] = assay: Antibacterial activity against Pseudomonas aeruginosa ATCC 10145 assessed as growth inhibition at 1 mg/ml after 24 hrs by agar diffusion method; type: functional; settings: ATCC 10145, 24 h, read-out: DIZ
Bacillus subtilis [7] = assay: Antibacterial activity against Bacillus subtilis ATCC 11774 assessed as growth inhibition at 1 mg/ml after 24 hrs by agar diffusion method; type: functional; settings: ATCC 11774, 24 h, read-out: DIZ
Pseudomonas aeruginosa [8] = assay: Antibacterial activity against Pseudomonas aeruginosa ATCC 10145 assessed as growth inhibition by broth dilution method; type: functional
Enterococcus faecalis = assay: Antibacterial activity against Enterococcus faecalis ATCC 14506 assessed as growth inhibition at 1 mg/ml after 24 hrs by agar diffusion method; type: functional, organism-based
Staphylococcus aureus [9] = assay: Antibacterial activity against methicillin-resistant Staphylococcus aureus ATCC 43300 assessed as growth inhibition at 1 mg/ml after 24 hrs by agar diffusion method; type: functional, organism-based
Bacillus subtilis [10] = assay: Bactericidal activity against Bacillus subtilis ATCC 11774 by broth dilution method; type: functional
Pseudomonas aeruginosa [11] = assay: Bactericidal activity against Pseudomonas aeruginosa ATCC 10145 by broth dilution method; type: functional
Staphylococcus aureus [12] = assay: Bactericidal activity against Staphylococcus aureus ATCC 25923 by broth dilution method; type: functional
Staphylococcus aureus [13] = assay: Antibacterial activity against Staphylococcus aureus ATCC 25923 assessed as growth inhibition at 1 mg/ml after 24 hrs by agar diffusion method; type: functional; settings: ATCC 25923, 24 h, read-out: DIZ
Escherichia coli [14] = assay: Antibacterial activity against Escherichia coli ATCC 10536 assessed as growth inhibition by broth dilution method; type: functional
[15] = tested on: Staphylococcus epidermidis; assay: Antibacterial activity against Staphylococcus epidermidis ATCC 12228 assessed as growth inhibition at 1 mg/ml after 24 hrs by agar diffusion method; type: functional, organism-based
[16] = Selectivity index, ratio of CC50 for african green monkey vero cells to MIC for Pseudomonas aeruginosa ATCC 10145; type: functional
Serratia marcescens [17] = assay: Antibacterial activity against Serratia marcescens ATCC 13880 assessed as growth inhibition at 1 mg/ml after 24 hrs by agar diffusion method; type: functional; settings: ATCC 13880, 24 h, read-out: DIZ
Bacillus subtilis [18] = assay: Antibacterial activity against Bacillus subtilis ATCC 11774 assessed as growth inhibition by broth dilution method; type: functional
Salmonella typhimurium = assay: Antibacterial activity against Salmonella typhimurium ATCC 51812 assessed as growth inhibition at 1 mg/ml after 24 hrs by agar diffusion method; type: functional, organism-based; settings: Salmonella enterica subsp. enterica serovar Typhimurium
[19] = Cytotoxicity against african green monkey vero cells by MTT assay; type: cell-based; settings: chlorocebus sabaeus
[20] = Selectivity index, ratio of CC50 for african green monkey vero cells to MIC for Staphylococcus aureus ATCC 25923; type: functional
[21] = Selectivity index, ratio of CC50 for african green monkey vero cells to MIC for Serratia marcescens ATCC 13880; type: functional
Serratia marcescens [22] = assay: Antibacterial activity against Serratia marcescens ATCC 13880 assessed as growth inhibition by broth dilution method; type: functional
Serratia marcescens [23] = assay: Bactericidal activity against Serratia marcescens ATCC 13880 by broth dilution method; type: functional

| Molecule | Selectivity Index [1] | MBC (Escherichia coli [2]) [mg/mL] | Selectivity Index [3] | MIC (Staphylococcus aureus [4]) [mg/mL] | zone of inhibition at 1000 µg/mL (Escherichia coli [5]) [mm] | zone of inhibition at 1000 µg/mL (Pseudomonas aeruginosa [6]) [mm] | zone of inhibition at 1000 µg/mL (Bacillus subtilis [7]) [mm] | MIC (Pseudomonas aeruginosa [8]) [mg/mL] | growth inhibition (GI) (Enterococcus faecalis) | growth inhibition (GI) (Staphylococcus aureus [9]) | MBC (Bacillus subtilis [10]) [mg/mL] | MBC (Staphylococcus aureus [12]) [mg/mL] | zone of inhibition at 1000 µg/mL (Staphylococcus aureus [13]) [mm] | MIC (Escherichia coli [14]) [mg/mL] | growth inhibition (GI) [15] | zone of inhibition at 1000 µg/mL (Serratia marcescens [17]) [mm] | MIC (Bacillus subtilis [18]) [mg/mL] | growth inhibition (GI) (Salmonella typhimurium) | CC50 [19] [mg/mL] | Selectivity Index [20] | also measured |
| --- | --- | --- | --- | --- | --- | --- | --- | --- | --- | --- | --- | --- | --- | --- | --- | --- | --- | --- | --- | --- | --- |
| N#Cc1nnc2c(C#N)c(N3CCCCC3)nn2c1N | 0.09 | 16 (≈ 59.6 mM) | 0.09 | 16 (≈ 59.6 mM) | 10 | 7 | 11 | 16 (≈ 59.6 mM) | inactive | inactive | 16 (≈ 59.6 mM) | 16 (≈ 59.6 mM) | 11 | 16 (≈ 59.6 mM) | inactive | 6 | 16 (≈ 59.6 mM) | inactive | 1.4 (≈ 5.22 mM) | 0.09 | MBC (Pseudomonas aeruginosa [11]): 16 mg/mL (≈ 59.6 mM); Selectivity Index [16]: 0.09 |
| CSc1c(C#N)c(N)nc2c(C#N)c(N3CCCCC3)nn12 | 0.11 | 16 (≈ 51.1 mM) | 0.11 | 16 (≈ 51.1 mM) | 10 | 7 | 10 | 8 (≈ 25.5 mM) | inactive | inactive | 16 (≈ 51.1 mM) | 16 (≈ 51.1 mM) | 11 | 16 (≈ 51.1 mM) | inactive | 7 | 16 (≈ 51.1 mM) | inactive | 1.75 (≈ 5.58 mM) | 0.11 | MBC (Pseudomonas aeruginosa [11]): 16 mg/mL (≈ 51.1 mM); Selectivity Index [21]: 0.11; MIC (Serratia marcescens [22]): 16 mg/mL (≈ 51.1 mM); Selectivity Index [16]: 0.22; MBC (Serratia marcescens [23]): 16 mg/mL (≈ 51.1 mM) |
| N#Cc1c(N2CCCCC2)n[nH]c1N | 0.14 | 8 (≈ 41.8 mM) | 0.14 | 16 (≈ 83.7 mM) | 15 | 7 | 9 | 8 (≈ 41.8 mM) | inactive | inactive | 8 (≈ 41.8 mM) | 16 (≈ 83.7 mM) | 15 | 4 (≈ 20.9 mM) | inactive | 6 | 4 (≈ 20.9 mM) | inactive | 0.55 (≈ 2.88 mM) | 0.14 | MBC (Pseudomonas aeruginosa [11]): 8 mg/mL (≈ 41.8 mM); Selectivity Index [21]: 0.28; MIC (Serratia marcescens [22]): 2 mg/mL (≈ 10.5 mM); Selectivity Index [16]: 0.07; MBC (Serratia marcescens [23]): 4 mg/mL (≈ 20.9 mM) |
| GENTAMICIN | – | – | – | – | – | – | – | 0.001 | – | – | – | – | – | – | – | – | – | – | – | – | MBC (Pseudomonas aeruginosa [11]): 0.002 mg/mL |
| Cc1ccc(C)n1-c1[nH]nc(N2CCCC2)c1C#N | 0.14 | 16 (≈ 62.7 mM) | 0.07 | 8 (≈ 31.3 mM) | 13 | 6 | 8 | – | inactive | inactive | 8 (≈ 31.3 mM) | 8 (≈ 31.3 mM) | 7 | 8 (≈ 31.3 mM) | inactive | 6 | 4 (≈ 15.7 mM) | inactive | 0.55 (≈ 2.15 mM) | 0.07 | – |
| Cc1ccc(C)n1-c1[nH]nc(N2CCCCC2)c1C#N | 0.35 | 8 (≈ 29.7 mM) | 0.18 | 8 (≈ 29.7 mM) | 7 | 7 | 16 | 4 (≈ 14.9 mM) | inactive | inactive | 8 (≈ 29.7 mM) | 8 (≈ 29.7 mM) | 12 | 8 (≈ 29.7 mM) | inactive | 6 | 4 (≈ 14.9 mM) | inactive | 1.4 (≈ 5.2 mM) | 0.18 | MBC (Pseudomonas aeruginosa [11]): 8 mg/mL (≈ 29.7 mM); Selectivity Index [16]: 0.35 |
| Cc1cc(C)n2nc(N3CCCCC3)c(C#N)c2n1 | 0.08 | 16 (≈ 62.7 mM) | 0.08 | 16 (≈ 62.7 mM) | 11 | 6 | 10 | – | inactive | inactive | 16 (≈ 62.7 mM) | 16 (≈ 62.7 mM) | 12 | 16 (≈ 62.7 mM) | inactive | 7 | 16 (≈ 62.7 mM) | inactive | 1.25 (≈ 4.9 mM) | 0.08 | Selectivity Index [21]: 0.08; MIC (Serratia marcescens [22]): 16 mg/mL (≈ 62.7 mM); MBC (Serratia marcescens [23]): 16 mg/mL (≈ 62.7 mM) |
| CC(=O)n1nc(N2CCCC2)c(C#N)c1N | 0.18 | 16 (≈ 73 mM) | 0.18 | 16 (≈ 73 mM) | 16 | 6 | 14 | – | inactive | inactive | 16 (≈ 73 mM) | > 16 | 14 | 8 (≈ 36.5 mM) | inactive | 6 | 16 (≈ 73 mM) | inactive | 2.81 (≈ 12.8 mM) | 0.18 | – |
| Cc1cc(O)n2nc(N3CCOCC3)c(C#N)c2n1 | 0.01 | > 16 | 0 | 16 (≈ 61.7 mM) | 10 | 7 | 9 | 8 (≈ 30.9 mM) | inactive | inactive | 16 (≈ 61.7 mM) | 16 (≈ 61.7 mM) | 9 | 16 (≈ 61.7 mM) | inactive | 6 | 8 (≈ 30.9 mM) | inactive | 0.063 (≈ 0.243 mM) | 0 | MBC (Pseudomonas aeruginosa [11]): > 16 mg/mL; Selectivity Index [16]: 0.01 |
